According to the NIST ThermoML archive (doi:10.1021/je5000132):

Assays:
[1] = for speed of sound: 100 kPa, Pulse-echo method; for speed of sound / viscosity / mass density: Liquid; for viscosity / mass density: 101 kPa; for viscosity: Concentric cylinders viscometry; for mass density: Vibrating tube method; for surface tension liquid-gas: 294.7 K, Drop volume
[2] = xn = mol fraction of the nth substance listed; details: x2 = 0; for speed of sound: 100 kPa, Pulse-echo method; for speed of sound / viscosity / mass density: Liquid; for viscosity / mass density: 101 kPa; for viscosity: Concentric cylinders viscometry; for mass density: Vibrating tube method; for surface tension liquid-gas: 294.7 K, Drop volume

CC(CC(C)(C)C)CC(C)(C)CC(C)(C)C (configuration not stated) [2,2,4,4,6,8,8-heptamethylnonane]
[1]
Details	mass density [kg/m3]	speed of sound [m/s]	viscosity [mPa·s]
293.15 K	784.457	1285.7	3.7
303.15 K	777.761	1248.5	2.92
313.15 K	771.044	1211.8	2.37
323.15 K	764.316	1176	1.95
333.15 K	757.571	1140.8	1.63
343.15 K	750.7	–	1.39
353.15 K	743.8	–	1.19
363.15 K	736.8	–	1.04
373.15 K	729.9	–	0.914

Details	surface tension liquid-gas [mN/m]
[1]	24

CC(CC(C)(C)C)CC(C)(C)C [2,2,4,6,6-pentamethylheptane]
[1]
Details	speed of sound [m/s]
293.15 K	1203.6
303.15 K	1164.8
313.15 K	1126.7
323.15 K	1089.3
333.15 K	1052.5

Details	surface tension liquid-gas [mN/m]
[1]	21.8

CCCCCCCCCCCC [dodecane]
[1]
Details	mass density [kg/m3]	speed of sound [m/s]	viscosity [mPa·s]
293.15 K	748.893	1297.6	1.49
303.15 K	741.635	1259.3	1.25
313.15 K	734.349	1221.4	1.06
323.15 K	727.038	1184.2	0.916
333.15 K	719.691	1147.5	0.799
343.15 K	712.2	–	0.704
353.15 K	704.7	–	0.625
363.15 K	697.1	–	0.56
373.15 K	689.6	–	0.506

Details	surface tension liquid-gas [mN/m]
[1]	25.3

CCCCCCCCCCCC [dodecane] + CC(CC(C)(C)C)CC(C)(C)C
[2]
Details	mass density [kg/m3]	speed of sound [m/s]	viscosity [mPa·s]
293.15 K	748.893	1297.6	1.49
303.15 K	741.635	1259.3	1.25
313.15 K	734.349	1221.4	1.06
323.15 K	727.038	1184.2	0.916
333.15 K	719.691	1147.5	0.799
343.15 K	712.2	–	0.704
353.15 K	704.7	–	0.625
363.15 K	697.1	–	0.56
373.15 K	689.6	–	0.506

Details	surface tension liquid-gas [mN/m]
[2]	25.3

CCCCCCCCCCCC [dodecane] + CC(CC(C)(C)C)CC(C)(C)CC(C)(C)C
[2]
Details	mass density [kg/m3]	speed of sound [m/s]	viscosity [mPa·s]
293.15 K	748.893	1297.6	1.49
303.15 K	741.635	1259.3	1.25
313.15 K	734.349	1221.4	1.06
323.15 K	727.038	1184.2	0.916
333.15 K	719.691	1147.5	0.799
343.15 K	712.2	–	0.704
353.15 K	704.7	–	0.625
363.15 K	697.1	–	0.56
373.15 K	689.6	–	0.506

Details	surface tension liquid-gas [mN/m]
[2]	25.3
